Experimental data as given in ChEMBL document CHEMBL2440055, “Unusual transformation of substituted-3-formylchromones to pyrimidine analogues: synthesis and antimicrobial activities of 5-(o-hydroxyaroyl)pyrimidines” (Bioorg Med Chem Lett, 2013).
Converted amounts (≈) assume the structure as drawn. The source made the active and inactive calls. No cut-off for these calls is given here.

Tests used:
Candida tropicalis = test: Antifungal activity against Candida tropicalis MTCC-230 after 24 to 72 hrs by broth dilution method; format: functional
Aspergillus niger = test: Antifungal activity against Aspergillus niger MTCC-281 after 24 to 72 hrs by broth dilution method; format: functional
Geotrichum = test: Antifungal activity against Geotrichum candidum MTCC-3993 after 24 to 72 hrs by broth dilution method; format: functional
Candida albicans = test: Antifungal activity against Candida albicans MTCC-227 after 24 to 72 hrs by broth dilution method; format: functional
Pseudomonas aeruginosa = test: Antibacterial activity against Pseudomonas aeruginosa MTCC-741 after overnight incubation by two-fold broth dilution method; format: functional
Shigella flexneri = test: Antibacterial activity against Shigella flexneri MTCC-1457 after overnight incubation by two-fold broth dilution method; format: functional
Escherichia coli = test: Antibacterial activity against Escherichia coli MTCC-119 after overnight incubation by two-fold broth dilution method; format: functional
Staphylococcus aureus [1] = details: MTCC-740
Staphylococcus aureus [2] = test: Antibacterial activity against Staphylococcus aureus MTCC-740 after overnight incubation by two-fold broth dilution method
[3] = Cytotoxicity against human HeLa cells assessed as cell survival at 200 uM up to 24 hrs by MTT assay; format: cell-based; details: read-out: Survival
[4] = Cytotoxicity against human HeLa cells assessed as cell survival at 20 uM after 24 hrs by MTT assay; format: cell-based; details: read-out: Survival

| SMILES | MIC (Candida tropicalis) [µg/mL] | MIC (Aspergillus niger) [µg/mL] | MIC (Geotrichum) [µg/mL] | MIC (Candida albicans) [µg/mL] | MIC (Pseudomonas aeruginosa) [µg/mL] | MIC (Shigella flexneri) [µg/mL] | MIC (Escherichia coli) [µg/mL] | MIC (Staphylococcus aureus [1]) | MIC (Staphylococcus aureus [2]) [µg/mL] | viability at 24 h, 200 µM [3] [%] | viability at 24 h, 20 µM [4] [%] |
| --- | --- | --- | --- | --- | --- | --- | --- | --- | --- | --- | --- |
| OC(Cn1cncn1)(Cn1cncn1)c1ccc(F)cc1F [FLUCONAZOLE] | 23 (≈ 75.1 µM) | 45 (≈ 147 µM) | 10 (≈ 32.7 µM) | 20 (≈ 65.3 µM) | – | – | – | – | – | – | – |
| O=C(c1cncnc1)c1cc(Cl)ccc1O | > 100 | 50 (≈ 213 µM) | 28 (≈ 119 µM) | 35 (≈ 149 µM) | 96 (≈ 409 µM) | 74 (≈ 315 µM) | 68 (≈ 290 µM) | inactive | – | – | – |
| O=C(c1cncnc1)c1ccccc1O | > 100 | 70 (≈ 350 µM) | 48 (≈ 240 µM) | 34 (≈ 170 µM) | 66 (≈ 330 µM) | 58 (≈ 290 µM) | 64 (≈ 320 µM) | inactive | – | – | – |
| O=C(c1cncnc1)c1cc(F)ccc1O | 78 (≈ 357 µM) | > 100 | 35 (≈ 160 µM) | 28 (≈ 128 µM) | > 100 | 78 (≈ 357 µM) | > 100 | inactive | – | – | – |
| O=C(O)c1cn(C2CC2)c2cc(N3CCNCC3)c(F)cc2c1=O [CIPROFLOXACIN] | – | – | – | – | 0.7 (≈ 2.11 µM) | 1.2 (≈ 3.62 µM) | – | – | 1.6 (≈ 4.83 µM) | – | – |
| Cc1ccc(O)c(C(=O)c2cncnc2)c1 | 54 (≈ 252 µM) | 55 (≈ 257 µM) | 40 (≈ 187 µM) | 70 (≈ 327 µM) | 60 (≈ 280 µM) | 84 (≈ 392 µM) | > 100 | inactive | – | – | – |
| O=C(c1cncnc1)c1cc(F)c(Cl)cc1O | 46 (≈ 182 µM) | 48 (≈ 190 µM) | 15 (≈ 59.4 µM) | 46 (≈ 182 µM) | 70 (≈ 277 µM) | 50 (≈ 198 µM) | > 100 | inactive | – | 84 | 98 |
